In one assay the target is T1, GR (Homo sapiens, UniProt P04150).
T1 sequence (P04150 1-777): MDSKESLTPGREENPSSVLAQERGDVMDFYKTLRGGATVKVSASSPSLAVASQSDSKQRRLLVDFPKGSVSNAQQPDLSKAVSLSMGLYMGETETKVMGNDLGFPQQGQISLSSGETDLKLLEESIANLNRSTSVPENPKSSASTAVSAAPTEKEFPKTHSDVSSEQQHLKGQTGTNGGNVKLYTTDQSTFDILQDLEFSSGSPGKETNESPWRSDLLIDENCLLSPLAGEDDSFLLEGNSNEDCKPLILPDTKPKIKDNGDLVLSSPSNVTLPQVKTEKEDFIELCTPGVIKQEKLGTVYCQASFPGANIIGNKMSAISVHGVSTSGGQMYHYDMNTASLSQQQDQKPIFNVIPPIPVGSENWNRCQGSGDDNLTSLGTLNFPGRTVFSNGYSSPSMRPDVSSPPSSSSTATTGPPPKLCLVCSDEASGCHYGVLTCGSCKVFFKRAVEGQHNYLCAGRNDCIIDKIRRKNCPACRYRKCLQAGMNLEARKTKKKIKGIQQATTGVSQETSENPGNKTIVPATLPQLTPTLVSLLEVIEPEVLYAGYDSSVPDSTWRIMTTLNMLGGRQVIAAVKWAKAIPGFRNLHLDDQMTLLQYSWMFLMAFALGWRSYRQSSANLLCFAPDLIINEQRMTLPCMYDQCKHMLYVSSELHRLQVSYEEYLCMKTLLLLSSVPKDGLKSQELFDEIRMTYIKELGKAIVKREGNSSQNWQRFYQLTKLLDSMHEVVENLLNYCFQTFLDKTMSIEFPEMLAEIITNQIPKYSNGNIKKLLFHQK
Nature of the assay: GR transcriptional reporter assay, agonist mode (CV1 cells). Format: cell-based. The following applies: CV-1; % of maximal dexamethasone-stimulated activity. As to the method:
CV1 cells were maintained in MEM supplemented with 10% FBS. Transcriptional assays were performed by seeding 12 mL of cells at a density of 250,000 cells/mL into a T-75 cell culture flask in MEM supplemented with 5% charcoal-stripped serum and allowed to attach overnight. Cells were transiently transfected using FuGENE 6 (Roche Applied Science). […] Transfected cells were incubated overnight then split into four 96-well tissue culture plates and incubated for 4 hr followed by compound addition. […] The final agonist concentration used in the antagonist assays was 10 nM.

In the next assay the target is T2, PR-B (Homo sapiens, UniProt P06401).
T2 construct: cloning full-length human PRb into pCDNA; expressed in transfected cells; host or cells: HEPG2
T2 sequence (P06401 1-933): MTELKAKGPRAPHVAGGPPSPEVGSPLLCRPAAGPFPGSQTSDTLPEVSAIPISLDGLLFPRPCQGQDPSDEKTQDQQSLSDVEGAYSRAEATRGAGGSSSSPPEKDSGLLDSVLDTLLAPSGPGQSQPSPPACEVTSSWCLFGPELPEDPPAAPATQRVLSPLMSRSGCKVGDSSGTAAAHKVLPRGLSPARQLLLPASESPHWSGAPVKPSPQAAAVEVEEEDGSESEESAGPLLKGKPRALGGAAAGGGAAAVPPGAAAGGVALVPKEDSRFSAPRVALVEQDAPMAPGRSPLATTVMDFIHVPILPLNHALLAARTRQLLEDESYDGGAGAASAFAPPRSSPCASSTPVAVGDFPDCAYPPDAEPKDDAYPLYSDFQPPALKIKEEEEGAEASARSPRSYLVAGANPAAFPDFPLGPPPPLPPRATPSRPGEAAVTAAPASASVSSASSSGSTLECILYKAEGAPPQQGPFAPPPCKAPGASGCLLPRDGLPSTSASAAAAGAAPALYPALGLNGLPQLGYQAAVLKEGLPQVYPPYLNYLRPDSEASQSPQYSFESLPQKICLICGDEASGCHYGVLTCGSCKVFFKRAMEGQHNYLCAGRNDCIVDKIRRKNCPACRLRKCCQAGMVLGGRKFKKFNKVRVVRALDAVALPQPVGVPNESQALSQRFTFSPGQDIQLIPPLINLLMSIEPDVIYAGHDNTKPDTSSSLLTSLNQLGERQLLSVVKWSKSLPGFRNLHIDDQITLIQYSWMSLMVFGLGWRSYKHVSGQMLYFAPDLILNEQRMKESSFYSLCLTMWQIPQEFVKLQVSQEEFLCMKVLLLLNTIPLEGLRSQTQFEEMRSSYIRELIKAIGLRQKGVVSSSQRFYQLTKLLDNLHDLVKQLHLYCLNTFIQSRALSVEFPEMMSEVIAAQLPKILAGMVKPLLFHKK
Nature of the assay: PR-B transcriptional reporter assay, agonist mode (HEPG2 cells). Format: cell-based. The following applies: % of maximal R5020-stimulated activity. (In general: A reporter such as luciferase makes a cellular process visible.)

In the next assay the target is T3, PR-A (Homo sapiens, UniProt P06401).
T3 sequence (P06401 1-769 isoform P06401-2): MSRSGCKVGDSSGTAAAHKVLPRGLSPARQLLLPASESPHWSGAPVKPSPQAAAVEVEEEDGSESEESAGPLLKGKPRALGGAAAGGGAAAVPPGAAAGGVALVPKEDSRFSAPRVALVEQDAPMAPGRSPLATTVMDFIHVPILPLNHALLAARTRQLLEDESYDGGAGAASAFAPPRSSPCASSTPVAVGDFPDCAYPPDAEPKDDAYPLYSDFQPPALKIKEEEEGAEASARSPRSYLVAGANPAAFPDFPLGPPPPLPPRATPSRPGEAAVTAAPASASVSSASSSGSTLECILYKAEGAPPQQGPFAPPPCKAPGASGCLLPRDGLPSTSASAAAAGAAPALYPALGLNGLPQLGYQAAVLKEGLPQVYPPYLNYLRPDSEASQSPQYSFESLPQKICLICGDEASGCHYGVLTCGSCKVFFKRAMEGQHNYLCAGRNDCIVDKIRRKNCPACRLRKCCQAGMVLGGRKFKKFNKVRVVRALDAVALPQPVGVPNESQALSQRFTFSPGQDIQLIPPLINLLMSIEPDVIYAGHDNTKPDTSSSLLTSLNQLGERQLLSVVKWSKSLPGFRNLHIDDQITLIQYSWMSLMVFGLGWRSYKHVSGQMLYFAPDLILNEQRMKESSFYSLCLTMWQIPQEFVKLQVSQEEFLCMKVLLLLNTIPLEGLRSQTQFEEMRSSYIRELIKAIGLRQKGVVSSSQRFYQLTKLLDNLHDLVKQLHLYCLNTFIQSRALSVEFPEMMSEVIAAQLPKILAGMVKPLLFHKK
In words: PR-A transcriptional reporter assay, agonist mode (HEPG2 cells). Format: cell-based. The arrangement: subcloning full-length PRa into pCMX; expressed in transfected cells; host or cells: HEPG2. Conditions: % of maximal R5020-stimulated activity. As to the method: (§1) Transcriptional assays were performed by seeding 100 μL of cells at a density of 250,000 cells/mL into 96-well cell culture plates in RPMI 1640 supplemented with 5% charcoal-stripped serum and allowed to attach overnight. […] Triplicate transfections were performed using 418 ng reporter vector (2X PRE-Luciferase for PR-A and PR-B, MMTV-Luciferase for MR), 50 ng CMVpRL (normalization vector), 10 ng NHR expression vector (CMX-PR-A, pCDNA-PR-B or 6R-MR), and 0.7 μL lipofectin. […] The final agonist concentration used in the antagonist assays was 1 nM. Following 24 hr incubation, the medium was removed and the cells were lysed in 40 μL of lysis buffer (25 mM Tris Phosphate, 2 mM CDTA, 10% Glycerol, 0.5% Triton X-100, 2 mM DTT). Firefly luciferase activity was measured immediately following the addition of 40 μL luciferase buffer (20 mM tricine, 0.1 mM EDTA, 1.07 mM (MgCO3)4 Mg(OH)2· 5H2O, 2.67 mM MgSO4, 33.3 mM DTT, 270 μM Coenzyme A, 470 μM luciferin, 530 μM ATP).

The target in a further assay is T4, MR (Homo sapiens, UniProt P08235).
T4 construct: expressed in transfected cells; host or cells: HEPG2
T4 sequence (P08235 1-984): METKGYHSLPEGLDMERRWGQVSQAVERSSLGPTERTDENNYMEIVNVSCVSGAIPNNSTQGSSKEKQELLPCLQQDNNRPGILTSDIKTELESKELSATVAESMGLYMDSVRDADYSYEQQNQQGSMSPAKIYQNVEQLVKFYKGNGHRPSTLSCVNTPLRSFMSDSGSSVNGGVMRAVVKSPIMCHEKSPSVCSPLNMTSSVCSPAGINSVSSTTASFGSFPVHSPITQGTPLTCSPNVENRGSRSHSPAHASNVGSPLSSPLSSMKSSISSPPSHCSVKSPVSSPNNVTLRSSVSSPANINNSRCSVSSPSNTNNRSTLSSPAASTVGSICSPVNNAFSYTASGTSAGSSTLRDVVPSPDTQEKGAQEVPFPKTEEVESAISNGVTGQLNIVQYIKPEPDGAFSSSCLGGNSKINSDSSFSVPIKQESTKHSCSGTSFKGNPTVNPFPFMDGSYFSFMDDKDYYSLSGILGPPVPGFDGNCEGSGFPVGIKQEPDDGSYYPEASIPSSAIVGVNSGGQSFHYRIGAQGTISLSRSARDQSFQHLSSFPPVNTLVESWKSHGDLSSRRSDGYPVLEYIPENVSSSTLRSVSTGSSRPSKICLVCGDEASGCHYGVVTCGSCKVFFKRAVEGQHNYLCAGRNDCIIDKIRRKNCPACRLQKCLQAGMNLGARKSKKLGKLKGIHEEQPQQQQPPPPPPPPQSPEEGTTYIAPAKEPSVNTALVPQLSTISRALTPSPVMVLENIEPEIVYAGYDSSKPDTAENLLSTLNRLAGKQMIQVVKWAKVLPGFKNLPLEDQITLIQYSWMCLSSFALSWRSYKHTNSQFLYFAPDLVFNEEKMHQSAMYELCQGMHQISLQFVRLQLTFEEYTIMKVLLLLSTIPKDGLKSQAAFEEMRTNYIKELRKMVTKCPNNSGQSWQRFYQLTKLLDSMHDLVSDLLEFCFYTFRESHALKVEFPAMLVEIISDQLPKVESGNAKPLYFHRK
In words: MR transcriptional reporter assay, agonist mode (HEPG2 cells). Conditions: % of maximal aldosterone-stimulated activity. It counts as cell-based. As for the experimental part:
as §1

Assay [1] addresses T5, human estrogen receptor alpha, GST-tagged ESR1 ligand binding domain, residues S282-V595, wild-type sequence (human, UniProt P03372 282-595).
T5 construct: Detected in the TR-FRET assay through a LanthaScreen Tb-anti-GST antibody; also called ER.WT; ERα LBD
T5 sequence (looked up): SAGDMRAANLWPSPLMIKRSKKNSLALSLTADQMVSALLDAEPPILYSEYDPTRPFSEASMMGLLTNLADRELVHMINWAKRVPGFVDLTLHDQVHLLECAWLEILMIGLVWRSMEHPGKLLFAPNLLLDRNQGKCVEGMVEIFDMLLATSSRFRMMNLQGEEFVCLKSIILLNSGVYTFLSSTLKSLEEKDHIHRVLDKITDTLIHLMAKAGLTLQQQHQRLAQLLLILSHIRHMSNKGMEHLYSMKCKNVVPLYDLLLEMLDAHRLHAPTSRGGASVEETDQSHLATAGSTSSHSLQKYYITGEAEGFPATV
Nature of the assay: FRET or BRET; cell-free TR-FRET PGC1α recruitment assay; GST-ERα LBD (3x solution 22 nM) detected with Tb-anti-GST antibody (3x mix 15 nM), Fluorescein-PGC1α peptide (3x mix 750 nM), estradiol (3x mix 12 nM; agonist at EC80), TR-FRET Co-regulator Buffer E with 7.5 mM DTT, 2 hr at room temperature; GDC-0810 titrated as small-molecule competitor. The following applies: both partners purified. (Bioluminescence resonance energy transfer reports proximity on the nanometre scale.)

The values that follow come from PMC4961458 (eLife, 2016).

No end group written: not given here.

Consider `CC#C[C@]1(O)CC[C@H]2[C@@H]3CCC4=CC(=O)CCC4=C3[C@@H](c3ccc(N(C)C)cc3)C[C@@]21C` [RU-486], for which the Emax (commonly the maximal effect, on the per cent scale that the assay sets) on GR was determined as 8.06 ± 0.66%; at PR-B, 3.25 ± 1.17%; on PR-A, 13.3 ± 10.2%.

`CC(=O)S[C@@H]1CC2=CC(=O)CC[C@]2(C)[C@H]2CC[C@@]3(C)[C@@H](CC[C@@]34CCC(=O)O4)[C@H]12` [Spironolactone] returned an Emax at MR of 6.24 ± 0.37%.

B1: Fluorescein-PGC1α peptide (peptide)
peptide: EAEEPSLLKKLLLAPANTQ
modifications: also: fluorescein (position not given here)
notes: source: bought: Life Technologies PV4421
Take B1: the binding result in assay [1] was “binds”.
